Laboratory results from ChEMBL document CHEMBL4417631, “Oral peptide inhibitors of interleukin-23 receptor and their use to treat inflammatory bowel diseases” (2017).
*1 amine or outer side, *2 acyl side, *3 side chain or, on linkers, in order; H or OH if unused. Where a SMILES comes first, the peptide text is derived from it. Bridges are numbered along the chain shown (N, C = ends). Roman numbers before positions name the chains, in order. [ ]: non-standard residue; d: D form. Abu(4-yl) = O=C([C@H](CC[*:3])N[*:1])[*:2]; 2Nal = N[C@@H](Cc1ccc2ccccc2c1)C(=O)O; Diglycolyl = O=C(COCC(=O)[*:2])[*:1]; AEF = NCCOc1ccc(C[C@H](N)C(=O)O)cc1; Aib = CC(C)(N)C(=O)O

Columns and labels:
Interleukin-23 receptor [1] = biological target: T1, Interleukin-23 receptor (Homo sapiens, UniProt Q5VWK5); assay: Inhibition of interleukin-23 binding to human interleukin-23 receptor incubated for 2 hrs by competitive binding ELISA
T1 sequence (Q5VWK5 whole entry): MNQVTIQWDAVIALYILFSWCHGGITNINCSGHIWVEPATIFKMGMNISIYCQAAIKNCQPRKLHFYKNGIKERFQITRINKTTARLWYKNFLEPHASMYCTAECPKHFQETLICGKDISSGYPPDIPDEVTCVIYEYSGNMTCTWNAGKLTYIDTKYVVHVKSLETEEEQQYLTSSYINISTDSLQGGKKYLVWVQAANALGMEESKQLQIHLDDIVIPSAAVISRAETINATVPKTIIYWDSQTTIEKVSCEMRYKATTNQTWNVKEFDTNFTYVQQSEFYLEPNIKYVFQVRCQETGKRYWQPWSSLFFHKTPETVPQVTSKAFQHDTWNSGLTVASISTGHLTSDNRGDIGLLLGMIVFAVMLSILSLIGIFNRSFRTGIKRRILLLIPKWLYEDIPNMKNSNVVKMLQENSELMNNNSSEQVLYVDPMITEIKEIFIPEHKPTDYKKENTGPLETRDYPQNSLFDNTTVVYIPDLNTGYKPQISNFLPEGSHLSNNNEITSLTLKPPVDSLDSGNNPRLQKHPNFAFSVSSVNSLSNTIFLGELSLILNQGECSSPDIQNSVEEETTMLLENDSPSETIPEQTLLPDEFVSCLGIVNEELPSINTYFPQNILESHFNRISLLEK

Interleukin-23 receptor [2] = biological target: T1, Interleukin-23 receptor; assay: Inhibition of interleukin-23 receptor in human DB cells assessed as reduction in IL-23-stimulated STAT3 phosphorylation incubated for 30 mins by HTRF assay; format: cell-based

SMILES	IC50 (Interleukin-23 receptor [1]) [nM]	IC50 (Interleukin-23 receptor [2]) [nM]
CC(=O)N[C@@H](CS)C(=O)N[C@@H](C)C(=O)N[C@@H](CC(=O)O)C(=O)N[C@@H](Cc1c[nH]c2ccccc12)C(=O)N[C@H](C(=O)N[C@@H](CS)C(=O)N[C@@H](Cc1ccc(O)cc1)C(=O)N[C@@H](Cc1c[nH]c2ccccc12)C(=O)N[C@@H](Cc1cnc[nH]1)C(=O)N[C@H](C(=O)N[C@@H](Cc1ccccc1)C(=O)NCC(=O)N[C@H](CCCCN)C(=O)O)[C@@H](C)O)C(C)C	100 to 1000	100 to 1000
CC(=O)N[C@H](C(=O)N[C@@H](CC(N)=O)C(=O)N[C@H](C(=O)N[C@@H](Cc1c[nH]c2ccccc12)C(=O)N[C@@H](CCC(N)=O)C(=O)N[C@H](C(=O)N[C@@H](Cc1ccc(OCCN)cc1)C(=O)N[C@@H](Cc1ccc2ccccc2c1)C(=O)N[C@@](C)(CCCCN)C(=O)N[C@@H](CCC(=O)O)C(=O)N[C@@H](CC(N)=O)C(=O)NCC(N)=O)C(C)(C)S)[C@@H](C)O)C(C)(C)S	< 10	< 10
CC(=O)N[C@H]1CCSC[C@@H](C(=O)N[C@@H](Cc2ccc(OCCNC(=O)COCC(=O)NCCOc3ccc(C[C@H](NC(=O)[C@@H]4CSCC[C@H](NC(C)=O)C(=O)N[C@@H](CCC(N)=O)C(=O)N[C@@H]([C@@H](C)O)C(=O)N[C@@H](Cc5c[nH]c6ccccc56)C(=O)N[C@@H](CCC(N)=O)C(=O)N4)C(=O)N[C@@H](Cc4ccc5ccccc5c4)C(=O)NC(C)(C)C(=O)N[C@@H](CCC(N)=O)C(=O)N[C@@H](CC(N)=O)C(=O)NCC(N)=O)cc3)cc2)C(=O)N[C@@H](Cc2ccc3ccccc3c2)C(=O)NC(C)(C)C(=O)N[C@@H](CCC(N)=O)C(=O)N[C@@H](CC(N)=O)C(=O)NCC(N)=O)NC(=O)[C@H](CCC(N)=O)NC(=O)[C@H](Cc2c[nH]c3ccccc23)NC(=O)[C@H]([C@@H](C)O)NC(=O)[C@H](CCC(N)=O)NC1=O (I: Ac-[Abu(4-yl)]QTWQC[AEF][2Nal][Aib]QNG-NH2 / II: Ac-[Abu(4-yl)]QTWQC[AEF][2Nal][Aib]QNG-NH2; thioether I:1-I:6, II:1-II:6; linker I:7-II:7 via Diglycolyl)	25 to 100	10 to 25
CC(=O)N[C@H](C(=O)N[C@@H](CCC(N)=O)C(=O)N[C@H](C(=O)N[C@@H](Cc1c[nH]c2ccccc12)C(=O)N[C@@H](CCC(N)=O)C(=O)N[C@H](C(=O)N[C@@H](Cc1ccc(OCCN)cc1)C(=O)N[C@@H](Cc1ccc2ccccc2c1)C(=O)N[C@@](C)(CCCCN)C(=O)N[C@@H](CCC(=O)O)C(=O)N[C@@H](CC(N)=O)C(=O)NCC(N)=O)C(C)(C)S)[C@@H](C)O)C(C)(C)S	10 to 25	< 10
CC(=O)N[C@H](C(=O)NCC(=O)N[C@H](C(=O)N[C@@H](Cc1c[nH]c2ccccc12)C(=O)N[C@@H](CCC(N)=O)C(=O)N[C@H](C(=O)N[C@@H](Cc1ccc(OCCN)cc1)C(=O)N[C@@H](Cc1ccc2ccccc2c1)C(=O)N[C@@](C)(CCCCN)C(=O)N[C@@H](CCC(=O)O)C(=O)N[C@@H](CC(N)=O)C(=O)NCC(N)=O)C(C)(C)S)[C@@H](C)O)C(C)(C)S	10 to 25	< 10
CC(=O)N[C@H](C(=O)N[C@H](C(=O)N[C@H](C(=O)N[C@@H](Cc1c[nH]c2ccccc12)C(=O)N[C@@H](CCC(N)=O)C(=O)N[C@H](C(=O)N[C@@H](Cc1ccc(OCCN)cc1)C(=O)N[C@@H](Cc1ccc2ccccc2c1)C(=O)N[C@@](C)(CCCCN)C(=O)N[C@@H](CCC(=O)O)C(=O)N[C@@H](CC(N)=O)C(=O)NCC(N)=O)C(C)(C)S)[C@@H](C)O)[C@@H](C)O)C(C)(C)S	10 to 25	< 10
CC(=O)NCCCC[C@H](NC(=O)[C@](C)(CCCCN)NC(=O)[C@H](Cc1c[nH]c2ccccc12)NC(=O)[C@H](Cc1ccc(OCCN)cc1)NC(=O)[C@@H]1CSCC[C@H](NC(C)=O)C(=O)N[C@@H](CCC(N)=O)C(=O)N[C@@H]([C@@H](C)O)C(=O)N[C@@H](Cc2c[nH]c3ccccc23)C(=O)N[C@@H](CCC(N)=O)C(=O)N1)C(=O)NC1CNC(=O)CNC1=O (stereo not given in full)	25 to 100	< 10
CC(=O)N[C@H](C(=O)N[C@@H](CO)C(=O)N[C@H](C(=O)N[C@@H](Cc1c[nH]c2ccccc12)C(=O)N[C@@H](CCC(N)=O)C(=O)N[C@H](C(=O)N[C@@H](Cc1ccc(OCCN)cc1)C(=O)N[C@@H](Cc1ccc2ccccc2c1)C(=O)N[C@@](C)(CCCCN)C(=O)N[C@@H](CCC(=O)O)C(=O)N[C@@H](CC(N)=O)C(=O)NCC(N)=O)C(C)(C)S)[C@@H](C)O)C(C)(C)S	10 to 25	< 10
CC(=O)N[C@H]1CCSC[C@@H](C(=O)N[C@@H](Cc2ccc(F)c(F)c2)C(=O)N[C@@H](Cc2ccc3ccccc3c2)C(=O)NC(C)(C)C(=O)N[C@@H](CCC(=O)O)C(=O)N[C@@H](CC(N)=O)C(=O)NCC(N)=O)NC(=O)[C@H](CCC(N)=O)NC(=O)[C@H](Cc2c[nH]c3ccccc23)NC(=O)[C@H]([C@@H](C)O)NC(=O)[C@H](CCC(N)=O)NC1=O	25 to 100	10 to 25
CC(=O)N[C@@H](CS)C(=O)N[C@@H](C)C(=O)N[C@@H](CC(=O)O)C(=O)N[C@@H](Cc1c[nH]c2ccccc12)C(=O)N[C@H](C(=O)N[C@@H](CS)C(=O)N[C@@H](Cc1ccc(O)cc1)C(=O)N[C@@H](Cc1c[nH]c2ccccc12)C(=O)N[C@H](Cc1cnc[nH]1)C(=O)N[C@H](C(=O)N[C@@H](Cc1ccccc1)C(=O)NCC(=O)NCCOCC(=O)N[C@H](CCCCN)C(N)=O)[C@@H](C)O)C(C)C	100 to 1000	100 to 1000
CC(=O)N[C@@H](CS)C(=O)N[C@@H](CCC(N)=O)C(=O)N[C@H](C(=O)N[C@@H](Cc1c[nH]c2ccccc12)C(=O)N[C@@H](CCC(N)=O)C(=O)N[C@@H](CS)C(=O)N[C@@H](Cc1ccc(O)cc1)C(=O)N[C@@H](Cc1c[nH]c2ccccc12)C(=O)N[C@@H](CCC(C)C)C(=O)N[C@@H](CCC(=O)O)C(=O)N[C@@H](CC(N)=O)C(=O)NCC(=O)N[C@@H](CCCNC(=N)N)C(N)=O)[C@@H](C)O	> 10000	> 1000
CC(=O)NCCCC[C@H](NC(=O)C(C)(C)NC(=O)[C@H](Cc1ccc2ccccc2c1)NC(=O)[C@H](Cc1ccc(OCCN)cc1)NC(=O)[C@@H](NC(=O)[C@H](CCC(N)=O)NC(=O)[C@H](Cc1c[nH]c2ccccc12)NC(=O)[C@@H](NC(=O)[C@H](CCC(N)=O)NC(=O)[C@@H](NC(=O)[C@@H](CC(=O)O)NC(C)=O)C(C)(C)S)[C@@H](C)O)C(C)(C)S)C(=O)N[C@@H](CC(N)=O)C(=O)N[C@@H](CC(N)=O)C(N)=O	–	< 10
CC(=O)NCCCC[C@H](NC(=O)C(C)(C)NC(=O)[C@H](Cc1ccc2ccccc2c1)NC(=O)[C@H](Cc1ccc(OCCN)cc1)NC(=O)[C@@H](NC(=O)[C@H](CCC(N)=O)NC(=O)[C@H](Cc1c[nH]c2ccccc12)NC(=O)[C@@H](NC(=O)[C@@H](NC(=O)[C@@H](NC(C)=O)C(C)(C)S)[C@@H](C)O)[C@@H](C)O)C(C)(C)S)C(=O)N[C@@H](CC(N)=O)C(=O)N[C@@H](CCC(N)=O)C(N)=O	–	< 10
COc1ccc(C[C@H](NC(=O)[C@@H](NC(=O)[C@H](CCC(N)=O)NC(=O)[C@H](Cc2c[nH]c3ccccc23)NC(=O)[C@@H](NC(=O)[C@H](CCC(N)=O)NC(=O)[C@@H](NC(C)=O)C(C)(C)S)[C@@H](C)O)C(C)(C)S)C(=O)N[C@@H](Cc2ccc3ccccc3c2)C(=O)NC(C)(C)C(=O)N[C@@H](CCCCNC(C)=O)C(=O)N[C@@H](CC(N)=O)C(=O)N[C@@H](CCC(N)=O)C(N)=O)cc1	–	< 10
CC(=O)N[C@@H](CS)C(=O)N[C@H](C(=O)N[C@@H](CC(=O)O)C(=O)N[C@@H](Cc1c[nH]c2ccccc12)C(=O)N[C@@H](CCCCN)C(=O)N[C@@H](CS)C(=O)N[C@@H](Cc1ccc(O)cc1)C(=O)N[C@@H](Cc1c[nH]c2ccccc12)C(=O)N[C@@H](Cc1cnc[nH]1)C(=O)N[C@H](C(=O)N[C@@H](Cc1ccccc1)C(=O)NCC(N)=O)[C@@H](C)O)[C@@H](C)O	100 to 1000	100 to 1000
CC(=O)NCCCC[C@H](NC(=O)[C@](C)(CCCCN)NC(=O)[C@H](Cc1ccc2ccccc2c1)NC(=O)[C@H](Cc1ccc(OCCN)cc1)NC(=O)[C@@H]1CSCC[C@H](NC(C)=O)C(=O)N[C@@H](CCC(N)=O)C(=O)N[C@@H]([C@@H](C)O)C(=O)N[C@@H](Cc2c[nH]c3ccccc23)C(=O)N[C@@H](CCC(N)=O)C(=O)N1)C(=O)N[C@@H](CC(=O)NCCCCN)C(=O)NCC(N)=O	–	25 to 100
COc1ccc(C[C@H](NC(=O)[C@@H](NC(=O)[C@H](CCC(N)=O)NC(=O)[C@H](Cc2c[nH]c3ccccc23)NC(=O)[C@@H](NC(=O)[C@H](CCC(N)=O)NC(=O)[C@@H](NC(C)=O)C(C)(C)S)[C@@H](C)O)C(C)(C)S)C(=O)N[C@@H](Cc2ccc3ccccc3c2)C(=O)N[C@](C)(C(=O)N[C@@H](CCCCNC(C)=O)C(=O)N[C@@H](CC(N)=O)C(=O)N[C@@H](CC(N)=O)C(=O)N[C@@H](N)CCCCN)C(C)C)cc1	–	< 10
CC(=O)NCCCC[C@H](NC(=O)C(C)(C)NC(=O)[C@H](Cc1ccc2ccccc2c1)NC(=O)[C@H](Cc1ccc(OCCN)cc1)NC(=O)[C@@H](NC(=O)[C@H](CCC(N)=O)NC(=O)[C@H](Cc1c[nH]c2ccccc12)NC(=O)[C@@H](NC(=O)[C@H](CCC(N)=O)NC(=O)[C@@H](NC(=O)[C@H](CCCNC(=N)N)NC(C)=O)C(C)(C)S)[C@@H](C)O)C(C)(C)S)C(=O)N[C@@H](CC(N)=O)C(=O)N[C@@H](CC(N)=O)C(N)=O	–	< 10
